Source: US20160270393A1, “INSECT REPELLENT COMPOSITIONS AND METHODS OF USE” (Wageningen Universiteit, priority 2013, published 2016)
“Also recorded” adds a separate entry of the source. Where two headings read alike, the source gives them in different places.

Assays:
[1] = system: An. gambiae s.s., Mbita strain; experiment: Semi-field testing in MalariaSphere (push / push-pull, trap catches inside and outside experimental house); type: in vivo, Anopheles gambiae s.s.; parameters: Reduction (mosquitoes trapped indoors vs control): concentration or dose not given beside the values; conditions: for Indoors Mean (SEM) no. mosquitoes / Indoors Percentage trapped / Reduction (mosquitoes trapped indoors vs control) / Outdoors Mean (SEM) no. mosquitoes / Outdoors Percentage trapped: n=6; for spatial repellent effect: inventors' observation, repellent traps spaced about 4-5 meters apart
Excerpt: Mosquitoes (An. gambiae s.s., Mbita strain; henceforth termed An. gambiae) were reared under ambient atmospheric conditions in screenhouses (larvae) and holding rooms (adults) at the Thomas Odhiambo Campus (TOC) of the International Centre of Insect Physiology and Ecology (ICIPE) located near Mbita Point township in western Kenya. Mosquito eggs were placed in plastic trays containing filtered water from Lake Victoria. All larval instars were fed on Tetramin® baby fish food which was supplied thrice per day. Pupae were collected daily and placed in mesh-covered cages (30×30×30 cm) prior to adult emergence. Adult mosquitoes were fed on 6% glucose solution through wicks made from adsorbent tissue paper.
Four to six day old female mosquitoes that had no prior access to blood were used for the semi-field experiments. The mosquitoes were collected from the colony at 12:00 h each day and stored for eight hours in the colony room with access to water on cotton wool. Within 15 min. before the start of the experiment the cups with the mosquitoes were transported to the MalariaSphere.
The experiments were conducted in Kenya at the Mbita Point Research & Training Centre of the International Centre of Insect Physiology and Ecology (ICIPE). Experiments took place in the MalariaSphere, a screenhouse into which a traditional house was built surrounded by natural vegetation (see Knols et al. (2002)). […] The MalariaSphere was set up as described by Knols et al. (2002) with as only modification that no breeding sites were present.
In the experiment the effects of attractant-baited traps and the dispersal of repellents around the traditional house were tested. Eight different setups were tested. During all tests, one attractant-baited trap (see below) was placed inside the experimental house to represent a human being. The house entry of the mosquitoes was measured by the number of mosquitoes caught by the trap inside the house.
Each night at 20:00 h, 200 female mosquitoes were released into the MalariaSphere. At 06:30 h the next morning the experiment was terminated by closing and switching off all traps. The traps were then placed in a freezer for several minutes to inactivate the mosquitoes, after which the number of trapped mosquitoes was determined.
The study compared the effect of three different repellents; in push-only situations, as well as in situations in which both the repellent and the attractive elements were present. […] Open circles represent a MMX trap baited with attractant. Filled circles represent a MMX trap dispersing the repellent. The asterisk indicates the mosquito release point. The numbers of the treatments correspond to the following:
Each setup was tested during six different nights, thus a total of 48 tests was carried out, during the same number of nights. The order of the tests was not fully randomized in order to minimize the risk of contamination of the MalariaSphere with the odours used.
Besides PMD, catnip essential oil (e.o.) and delta-undecalactone (dUDL) were used as repellents. Strips were impregnated with 40% solutions (catnip e.o. and dUDL were dissolved in paraffin oil) as described below.
Each night 200 mosquitoes were released from one central point between the entrance of the screenhouse and the experimental hut (see FIG. 3).
Mosquito Magnet® X (MM-X) traps (Kline (1999), Njiru et al (2006)) were baited with CO2 and a five-compound odour blend, which simulates the smell of a human foot (Mukabana et al., 2012). The individual compounds of the attractive blend were released from nylon strips (cut from panty hoses: 90% polyamide, 10% spandex, Marie Claire®) (Okumu et al. (2010b)). Concentrations were optimized for this setup and release method: ammonia (2.5% in water), L-(+)-lactic-acid (88-92%), tetradecanoic acid (0.000032% in ethanol), 3-methyl-1-butanol (0.000001% in water) and butan-1-amine (0.001% in paraffin oil) (see Table 1). […]

[2] = system: Anopheles gambiae s.s. females; experiment: Laboratory bioassay of repellent compounds (landings on heated, odour-baited plateau); type: in vivo; conditions: for effect on number of landings during eight minutes compared to ethanol control: 1% in ethanol on nylon strip, ten females, n=8, Mann-Whitney U, α=0.0042, listed in order of increasing efficacy; for repellent effect on host-seeking mosquitoes: 1% concentration
Method: The bioassay was set up in a room in which air temperature and relative humidity (RH) could easily be controlled. During experiments these parameters were continuously monitored using a Tinyview® data logger with display. Temperature was maintained at 24±1° C. and RH was kept between 60 and 75%.
Because repellents are volatile compounds, the risk of contamination of the setup is always present when testing these substances. Therefore, this bioassay uses replaceable 30×30×30 cm Bugdorm® cages as flight chambers. Although made of polyethylene (PE) and polypropylene (PP) which may potentially pick up the compounds tested, no contamination effects were observed, in contrast to a previously used cage made of metal and polycarbonate (see below).
Mosquitoes were attracted to a heated circular plateau (1) of diameter 15 cm acting as a landing surface, that was positioned underneath the gauze bottom of the Bugdorm® (2). Ten moist filter papers (3) of diameter 8 cm were applied on top of the heating plateau. Metal gauze was placed over the papers on which the strips releasing the odour blend were laid (see below). A transparent plastic cylinder was placed around the plateau to concentrate the warm, humid air within the area above the plateau.
A five-compound odour bait, which simulates the smell of a human foot (Mukabana et al., 2012), provided the necessary attractive background against which repellency could be measured. The individual compounds were released from nylon strips (cut from panty hoses: 90% polyamide, 10% spandex, Marie Claire®) (see Okumu et al. (2010b)). Concentrations were optimized for this release method: ammonia (25%), L-(+)-lactic-acid (88-92%), tetradecanoic acid (16% in ethanol), 3-methyl-1-butanol (0.01% in paraffin oil) and butan-1-amine (0.001% in paraffin oil). Strips measuring 26.5 cm×1 cm were impregnated with the attractive compounds by dipping them into an Eppendorf tube containing 1 ml of solution. Subsequently, they were stored at room temperature for three to five hours. Hereafter the strips were hung for half an hour under a fume hood to allow excess fluids to leak off. Finally they were packed in aluminium foil and stored at 4° C. in a refrigerator until use. Pulses of CO2 were released into the Bugdorm® through a teflon tube (4) that rested on top of the Bugdorm®. Each eight seconds, a two second pulse was released at 2.17 mL/sec (or 130 mL/min).
A glass screen (5, 6) was placed between the Bugdorm® and the place from where a researcher would carry out the behavioural observations. In this way, skin and breath emanations from the researcher were prevented from interfering directly with the mosquitoes inside the flight chamber. In the ceiling of the experimental room a fan created a gentle suction to carry off any volatiles emitted by both the experimental operator and the setup.
Repellence was measured by releasing a number of female Anopheles gambiae s.s. mosquitoes into the cage. The mosquitoes were highly attracted to the warm area on the bottom of the Bugdorm® cage and they would land and probe with their proboscis through the gauze in search of a blood-host.
A potential repellent was released from a nylon strip that was prepared identically to the method used for attractive compounds, with the exception that the strips were not hung up under a fume hood but stored in Eppendorf tubes at 4° C. directly after their preparation. The impregnated nylon strips with the repellents were taken out of their solution just before the start of the experiment and allowed to leak out on a piece of filter paper for 10 s before they were placed in the experimental setup. Strips were laid directly on the gauze bottom of the Bugdorm®, in a circle within the circular area under which the attractant blend was released.
After one minute of acclimatization time, the number of landings within the circular area formed by the treated strip was counted for a period of eight minutes. […]

[3] = background statement; cited from earlier work
[4] = system: An. gambiae s.s., Mbita strain; conditions: comparison statement; DEET not tested in this setup; cited from earlier work
[5] = push only, 40% solution on strip, 200 mosquitoes released per night
[6] = push only, 200 released per night

Row | SMILES | Indoors Mean (SEM) no. mosquitoes [1, 5] | Indoors Percentage trapped [1, 6] | Outdoors Mean (SEM) no. mosquitoes ([1]; push-pull) | Outdoors Percentage trapped ([1]; push-pull) | effect on number of landings during eight minutes compared to ethanol control [2] | solubility [3] | spatial repellent effect [1] | repellent effect on host-seeking mosquitoes [2] | further results
1 | CC1CCC(C(C)(C)O)C(O)C1 (stereo not drawn) [PMD, p-Menthane-3,8-diol, reference compound] | 44.5 (5.6) b | 22.3% | 125.0 (13.8) | 62.5% | significantly reduced the number of landings | – | – | – | Reduction (mosquitoes trapped indoors vs control) ([1]; push only): 45.7%; Indoors Mean (SEM) no. mosquitoes ([1]; push-pull (repellent plus attractant-baited traps outside), 200 released per night): 6.8 (1.2) c, d; Indoors Percentage trapped ([1]; push-pull, 200 released per night): 3.4%; Reduction (mosquitoes trapped indoors vs control) ([1]; push-pull): 91.7%
2 | CCCCCC1CCCC(=O)O1 (stereo not drawn) [δ-decalactone, 6-pentyloxan-2-one] | – | – | – | – | significantly reduced the number of landings | solubility in alcohols or oils | significant spatial repellent effect; also recorded: significant repellent effect from a distance of at least several decimeters | strong repellent effect | –
3 | CC(=O)CCC=C(C)C [6-methyl-5-hepten-2-one] | – | – | – | – | significantly reduced the number of landings | – | – | – | –
4 | CCN(CC)C(=O)c1cccc(C)c1 [DEET, N,N-diethyl-meta-toluamide] | – | – | – | – | significantly reduced the number of landings | – | – | – | spatial repellent effect [4]: little or no spatial repellent effect; also recorded: no spatial effect on distances from the human skin greater than a few millimeters
5 | CCCCCCC1CCCC(=O)O1 (stereo not drawn) [δ-undecalactone, 6-hexyloxan-2-one] | 15.2 (2.5) c(d) | 7.6% | 122.8 (7.1) | 61.4% | significantly reduced the number of landings | solubility in alcohol | significant spatial repellent effect; also recorded: significant repellent effect from a distance of at least several decimeters | strong repellent effect | Reduction (mosquitoes trapped indoors vs control) ([1]; push only, listed as dUDL): 81.5%; Reduction (mosquitoes trapped indoors vs control) ([1]; push only, listed as delta-undecalactone): 81.5%; Indoors Mean (SEM) no. mosquitoes ([1]; push-pull (repellent plus attractant-baited traps outside), 200 released per night, listed as dUDL): 3.7 (0.7) d; Indoors Mean (SEM) no. mosquitoes ([1]; push-pull (repellent plus attractant-baited traps outside), 200 released per night, listed as delta-undecalactone): 3.7 (0.7); Indoors Percentage trapped ([1]; push-pull, 200 released per night, listed as dUDL): 1.9%; Indoors Percentage trapped ([1]; push-pull, 200 released per night, listed as delta-undecalactone): 1.9%; Reduction (mosquitoes trapped indoors vs control) ([1]; push-pull, listed as dUDL): 95.5%; Reduction (mosquitoes trapped indoors vs control) ([1]; push-pull, listed as delta-undecalactone): 95.5%
6 | C=CC(C)(O)CCC=C(C)C (stereo not drawn) [linalool] | – | – | – | – | significantly reduced the number of landings | – | – | – | –
